PMC9322451 (Clinical Pharmacology in Drug Development, 2022)

Columns and labels:
[1] = system: breast cancer resistance protein; set-up: method as in unpublished data; conditions: ref unpublished data; cited from earlier work
[2] = system: CYP2A6; set-up: method as in unpublished data; conditions: ref unpublished data; cited from earlier work
[3] = system: CYP2B6; set-up: method as in unpublished data; conditions: ref unpublished data; cited from earlier work
[4] = system: breast cancer resistance protein; set-up: method as in unpublished data; conditions: ref unpublished data, read-out: half maximal inhibitory concentration; cited from earlier work
[5] = system: P‐glycoprotein (P‐gp); set-up: method as in unpublished data; conditions: ref unpublished data; cited from earlier work
[6] = system: CYP2B6; set-up: method as in unpublished data; conditions: ref unpublished data, read-out: half maximal inhibitory concentration; cited from earlier work
[7] = system: CYP2C8; set-up: method as in unpublished data; conditions: ref unpublished data; cited from earlier work
[8] = Phase 1 part A: safety (TEAEs); type: in vivo, human; conditions: for Any TEAE / Headache (TEAE) / Nasopharyngitis (TEAE) / SAE / Severe TEAE / Skin exfoliation (TEAE) / TEAE leading to death / TEAE leading to discontinuation: Part A
Method: The study was conducted sequentially in 2 parts. […] Eligible participants were admitted to the clinical unit for single‐dose evaluation from days −2 to 2 and from days 29 to 31 for steady‐state PK and safety evaluation. Participants self‐administered daily doses after an overnight fast of at least 10 hours on days 4 to 30, with outpatient visits on days 3, 4, 7, 14, 21, 32, 33, and 61 (Figure S1). […] Dosing of the 40‐mg group commenced when the safety of 25 mg was deemed acceptable by both the investigator and the sponsor's (Insmed Incorporated, Bridgewater, New Jersey) medical monitor.
Safety was assessed from the signing of informed consent until the end of study and included the following variables: treatment‐emergent adverse events (TEAEs), serious adverse events (SAEs), clinical laboratory tests (clinical chemistry, hematology, coagulation [part A only], and urinalysis), vital signs, 12‐lead ECG, primary Holter monitoring, and physical examinations (including evaluation of teeth and gingiva, and evaluation of palms and soles). Because of the mechanism of action of brensocatib, findings of hyperkeratosis, periodontitis/gingivitis, and other infections were reported as adverse events of special interest (AESIs). Renal function (part A only) was monitored by measuring serum creatinine and blood urea nitrogen, performing routine urinalysis, and measuring neutrophil gelatinase–associated lipocalin and cystatin.
Adverse events (AEs) observed before the first dosing were recorded as medical history. All medical history and AEs were coded using the Medical Dictionary for Regulatory Activities (version 21.1 or higher). A TEAE was defined as an AE that began or worsened in severity after at least 1 dose of study drug was administered. All AEs experienced by a participant were monitored until the event had resolved, any abnormal laboratory values returned to baseline or stabilized, a satisfactory explanation for the changes was identified, or the participant was lost to follow‐up.

[9] = system: CYP1A2; set-up: method as in unpublished data; conditions: ref unpublished data; cited from earlier work
[10] = system: CYP2C9; set-up: method as in unpublished data; conditions: ref unpublished data; cited from earlier work
[11] = system: CYP1A2; set-up: method as in unpublished data; conditions: ref unpublished data; cited from earlier work; remark: listed apart in the source
[12] = system: organic anion transporting polypeptides; set-up: method as in unpublished data; conditions: ref unpublished data, read-out: half maximal inhibitory concentration; cited from earlier work
[13] = set-up: method as in PMID 29484635; conditions: single 35‐mg dose following a high‐fat breakfast; cited from earlier work
[14] = set-up: method as in unpublished data; conditions: ref unpublished data; cited from earlier work
[15] = set-up: method as in unpublished data; conditions: healthy adults; ref unpublished data; cited from earlier work

Cn1c(=O)oc2ccc(-c3ccc(C[C@@H](C#N)NC(=O)[C@@H]4CNCCCO4)cc3)cc21 [Brensocatib]
substrate status [1]: substrate
CYP inhibition [2]: no effect
CYP induction (significant inducer or not) [3]: not a significant
IC50 [4]: > 11 µM
substrate status [5]: substrate
IC50 [6]: > 30 µM
CYP inhibition [7]: no effect
Any TEAE ([8]; 10 mg, Japanese (n=8)): 3 (37.5) n (%)
Headache (TEAE) ([8]; 10 mg, Japanese (n=8)): 0 n (%)
Nasopharyngitis (TEAE) ([8]; 10 mg, Japanese (n=8)): 0 n (%)
SAE ([8]; 10 mg, Japanese (n=8)): 0 n (%)
Severe TEAE ([8]; 10 mg, Japanese (n=8)): 0 n (%)
Skin exfoliation (TEAE) ([8]; 10 mg, Japanese (n=8)): 1 (12.5) n (%)
TEAE leading to death ([8]; 10 mg, Japanese (n=8)): 0 n (%)
TEAE leading to discontinuation ([8]; 10 mg, Japanese (n=8)): 0 n (%)
Any TEAE ([8]; 10 mg, White (n=8)): 6 (75.0) n (%)
Headache (TEAE) ([8]; 10 mg, White (n=8)): 1 (12.5) n (%)
Nasopharyngitis (TEAE) ([8]; 10 mg, White (n=8)): 2 (25.0) n (%)
SAE ([8]; 10 mg, White (n=8)): 0 n (%)
Severe TEAE ([8]; 10 mg, White (n=8)): 0 n (%)
Skin exfoliation (TEAE) ([8]; 10 mg, White (n=8)): 0 n (%)
TEAE leading to death ([8]; 10 mg, White (n=8)): 0 n (%)
TEAE leading to discontinuation ([8]; 10 mg, White (n=8)): 0 n (%)
Any TEAE ([8]; 25 mg, Japanese (n=9)): 5 (55.6) n (%)
Headache (TEAE) ([8]; 25 mg, Japanese (n=9)): 3 (33.3) n (%)
Nasopharyngitis (TEAE) ([8]; 25 mg, Japanese (n=9)): 0 n (%)
SAE ([8]; 25 mg, Japanese (n=9)): 0 n (%)
Severe TEAE ([8]; 25 mg, Japanese (n=9)): 0 n (%)
Skin exfoliation (TEAE) ([8]; 25 mg, Japanese (n=9)): 2 (22.2) n (%)
TEAE leading to death ([8]; 25 mg, Japanese (n=9)): 0 n (%)
TEAE leading to discontinuation ([8]; 25 mg, Japanese (n=9)): 0 n (%)
Any TEAE ([8]; 25 mg, White (n=8)): 5 (62.5) n (%)
Headache (TEAE) ([8]; 25 mg, White (n=8)): 1 (12.5) n (%)
Nasopharyngitis (TEAE) ([8]; 25 mg, White (n=8)): 0 n (%)
SAE ([8]; 25 mg, White (n=8)): 0 n (%)
Severe TEAE ([8]; 25 mg, White (n=8)): 0 n (%)
Skin exfoliation (TEAE) ([8]; 25 mg, White (n=8)): 1 (12.5) n (%)
TEAE leading to death ([8]; 25 mg, White (n=8)): 0 n (%)
TEAE leading to discontinuation ([8]; 25 mg, White (n=8)): 0 n (%)
Any TEAE ([8]; 40 mg, Japanese (n=8)): 3 (37.5) n (%)
Headache (TEAE) ([8]; 40 mg, Japanese (n=8)): 0 n (%)
Nasopharyngitis (TEAE) ([8]; 40 mg, Japanese (n=8)): 0 n (%)
SAE ([8]; 40 mg, Japanese (n=8)): 0 n (%)
Severe TEAE ([8]; 40 mg, Japanese (n=8)): 0 n (%)
Skin exfoliation (TEAE) ([8]; 40 mg, Japanese (n=8)): 0 n (%)
TEAE leading to death ([8]; 40 mg, Japanese (n=8)): 0 n (%)
TEAE leading to discontinuation ([8]; 40 mg, Japanese (n=8)): 1 (12.5) n (%)
Any TEAE ([8]; 40 mg, White (n=8)): 5 (62.5) n (%)
Headache (TEAE) ([8]; 40 mg, White (n=8)): 2 (25.0) n (%)
Nasopharyngitis (TEAE) ([8]; 40 mg, White (n=8)): 0 n (%)
SAE ([8]; 40 mg, White (n=8)): 0 n (%)
Severe TEAE ([8]; 40 mg, White (n=8)): 0 n (%)
Skin exfoliation (TEAE) ([8]; 40 mg, White (n=8)): 1 (12.5) n (%)
TEAE leading to death ([8]; 40 mg, White (n=8)): 0 n (%)
TEAE leading to discontinuation ([8]; 40 mg, White (n=8)): 0 n (%)
Any TEAE ([8]; pooled brensocatib (N=49)): 27 (55.1) n (%)
Headache (TEAE) ([8]; pooled brensocatib (N=49)): 7 (14.3) n (%)
Nasopharyngitis (TEAE) ([8]; pooled brensocatib (N=49)): 2 (4.1) n (%)
SAE ([8]; pooled brensocatib (N=49)): 0 n (%)
Severe TEAE ([8]; pooled brensocatib (N=49)): 0 n (%)
Skin exfoliation (TEAE) ([8]; pooled brensocatib (N=49)): 5 (10.2) n (%)
TEAE leading to death ([8]; pooled brensocatib (N=49)): 0 n (%)
TEAE leading to discontinuation ([8]; pooled brensocatib (N=49)): 1 (2.0) n (%)
Renal toxicity assessments ([8]; part A): no signs of acute kidney injury
participants treated with brensocatib who experienced ≥1 TEAE ([8]; part A): 55.1%
AESIs (hyperkeratosis, periodontitis/gingivitis, other infections) ([8]; parts A and B): None of these AESIs were evident
SAEs, severe TEAEs, deaths during the study ([8]; parts A and B): No SAEs, severe TEAEs, or deaths occurred
tolerability ([8]; single and multiple administration 10, 25, and 40 mg for 28 days, healthy Japanese and White participants): well tolerated
CYP inhibition [9]: no effect
CYP inhibition [10]: no effect
CYP induction (significant inducer or not) [11]: not a significant
IC50 [12]: > 11 µM
Tmax [13]: 3.3 h
decrease of AUC with food [13]: 9%
decrease of Cmax with food [13]: 36%
degradation in human intestinal microsomes and hepatocytes [14]: minimal degradation
excreted in urine as unchanged [15]: ≈ 20%
